Measurements published in PubChem BioAssay (NCI).
“And” between values parts separate entries of the source, which are not always exact repeats. Equal values may be shown once.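 The compound was tested at five concentrations on cells cultured in 96-well plates, with a 48-hour exposure period. GI50 marks 50% less growth. Definition used: TGI = concentration required for complete inhibition of growth.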

Tests used:
Experiment in all cases: NCI tumour cell line growth inhibition, 48 h
786-0 renal = system: 786-0 renal
DLD-1 colon = system: DLD-1 colon
DMS 114 small cell lung = system: DMS 114 small cell lung
DMS 273 small cell lung = system: DMS 273 small cell lung
HOP-18 NSCLC = system: HOP-18 NSCLC
IGROV1 ovarian = system: IGROV1 ovarian
KM20L2 colon = system: KM20L2 colon
M19-MEL melanoma = system: M19-MEL melanoma
P388 leukemia = system: P388 leukemia
P388/ADR leukemia = system: P388/ADR leukemia
SN12K1 renal = system: SN12K1 renal
SNB-78 CNS = system: SNB-78 CNS
XF 498 CNS = system: XF 498 CNS
LXFL 529 NSCLC = system: LXFL 529 NSCLC

For COc1cc([C@@H]2c3cc4c(c(O)c3C[C@H]3COC(=O)[C@@H]32)OCO4)cc(OC)c1OC, the TGI (786-0 renal) was 46.8 µM and > 100 µM, the GI50 (DLD-1 colon) was 0.0646 nM and the TGI (DMS 114 small cell lung) was 1.5 µM. For the same molecule, the TGI (DMS 273 small cell lung) was 1.5 µM, the TGI (HOP-18 NSCLC) was 61.9 µM and the GI50 (IGROV1 ovarian) was 72.8 nM. It also gave a TGI (KM20L2 colon) of 0.522 µM, a GI50 (M19-MEL melanoma) of 0.137 nM and a TGI (P388 leukemia) of 551 nM. It also gave a TGI (P388/ADR leukemia) of 35.1 µM, a GI50 (SN12K1 renal) of 0.0526 nM and a TGI (SN12K1 renal) of 0.207 nM. The GI50 (SNB-78 CNS) was 0.011 nM and the TGI (XF 498 CNS) was 0.0887 µM.

Molecule COC(=O)[C@H](Cc1ccccc1)NC(=O)/C(=C/C(C)C)NC(=O)[C@H](CCSC)NC=O has a TGI (786-0 renal) of over 100 µM, a TGI (DLD-1 colon) of over 100 µM and a TGI (DMS 114 small cell lung) of over 100 µM. For the same molecule, the TGI (DMS 273 small cell lung) was over 100 µM, the TGI (HOP-18 NSCLC) was over 100 µM and the TGI (IGROV1 ovarian) was over 100 µM. For the same molecule, the TGI (KM20L2 colon) was over 100 µM, the TGI (LXFL 529 NSCLC) was over 100 µM and the TGI (M19-MEL melanoma) was over 100 µM. The TGI (XF 498 CNS) was over 100 µM.

Molecule NC1=NC2=c3ccccc3=C(c3cnccn3)C2(c2cnccn2)c2ccccc21 (centres undefined) has a TGI (786-0 renal) of over 100 µM, a TGI (DLD-1 colon) of over 100 µM and a TGI (DMS 114 small cell lung) of over 100 µM. For the same molecule, the TGI (DMS 273 small cell lung) was over 100 µM, the TGI (HOP-18 NSCLC) was over 100 µM and the TGI (IGROV1 ovarian) was over 100 µM. For the same molecule, the TGI (KM20L2 colon) was over 100 µM, the TGI (M19-MEL melanoma) was over 100 µM and the TGI (SNB-78 CNS) was over 100 µM. For the same molecule, the TGI (XF 498 CNS) was over 100 µM.
